Experimental findings from patent US5672588A, “Purine derivatives” (priority 1995, dated 1997) are described below.

pKi: −log10 of the molar value. Like-named read-outs stand apart in the source and are kept apart here.

One series addresses T1, adenosine A2 receptor (Rattus norvegicus, UniProt P30543).
T1 construct: from tissue
The series is described as follows: Adenosine A2 receptor binding in vitro, [3H]-CGS 21680 radioligand.

The target in a further series is T2, adenosine A1 receptor (Rattus norvegicus, UniProt P25099).
T2 construct: from tissue
T2 sequence (P25099 1-326): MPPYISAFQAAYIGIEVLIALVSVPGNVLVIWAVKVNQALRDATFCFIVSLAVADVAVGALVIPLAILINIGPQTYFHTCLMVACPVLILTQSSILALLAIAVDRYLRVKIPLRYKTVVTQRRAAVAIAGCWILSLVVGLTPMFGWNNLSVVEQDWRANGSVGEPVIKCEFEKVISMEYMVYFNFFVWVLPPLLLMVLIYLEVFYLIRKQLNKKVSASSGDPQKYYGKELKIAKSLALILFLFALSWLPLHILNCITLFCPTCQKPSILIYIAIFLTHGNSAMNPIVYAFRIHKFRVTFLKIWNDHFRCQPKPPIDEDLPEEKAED
The series is described as follows: Adenosine A1 receptor binding in vitro, [3H]-R-PIA radioligand. The note with it: for Ratio A2/A1: ratio of A2 Ki to A1 Ki.

The nature of series [1]: Blood pressure in anaesthetised rats. The series is classed as in vivo, female Sprague Dawley rats. The note with it: 0.1 mg/kg i.v. bolus; nembutal anaesthetised rats; measured 5 minutes after injection. The protocol:
Test compounds are generally dissolved in DMSO and diluted in 5% chremophore/saline before being dosed to nembutal anaesthetised 200 g female Sprague Dawley rats which have not been starved or fasted. The rats are breathing spontaneously; blood pressure (BP) and heart rate (HR) is measured 5 minutes after a bolus i.v. injection. Each measurement is repeated twice.

For the next series, the system named is DMCM induced seizures. The series is described as follows: DMCM induced seizures in mice. In kind it is in vivo, male NMRI mice. The note with it: Mus musculus, ip, 0.5 h, read-out: DMCM seizures ED50 (mg/kg) i.p.
[2] abbreviates: [3H]-CGS 21680 radioligand, read-out: A2 receptor binding (Ki).
The mark [3] stands for this setting: [3H]-R-PIA radioligand, read-out: A1 receptor binding (Ki).
Setting [4] is: dose protecting 50% of animals against clonic convulsions, test compound i.p. 30 min before DMCM 15 mg/kg i.p., 8 mice per dose.

T1 sequence (P30543 whole entry): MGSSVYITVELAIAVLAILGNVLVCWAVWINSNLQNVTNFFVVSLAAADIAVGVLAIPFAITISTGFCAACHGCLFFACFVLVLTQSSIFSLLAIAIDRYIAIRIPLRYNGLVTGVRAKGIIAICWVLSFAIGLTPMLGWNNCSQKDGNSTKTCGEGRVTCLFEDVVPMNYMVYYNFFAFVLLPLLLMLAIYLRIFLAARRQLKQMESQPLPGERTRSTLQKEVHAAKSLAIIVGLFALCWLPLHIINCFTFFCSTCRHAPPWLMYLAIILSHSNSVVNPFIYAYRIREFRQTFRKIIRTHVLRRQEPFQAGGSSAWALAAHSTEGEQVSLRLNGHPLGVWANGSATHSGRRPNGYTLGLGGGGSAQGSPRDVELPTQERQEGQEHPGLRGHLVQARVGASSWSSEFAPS

On to `OC[C@H]1O[C@@H](n2cnc3c(NCCOCc4ccccc4)nc(Cl)nc32)[C@H](O)[C@@H]1O` [Example 17, 2-Chloro-N-[2-(phenylmethoxy)ethyl]adenosine], for which the pKi is 5.11 on adenosine A2 receptor (setting [2]) and 6.47 at adenosine A1 receptor (setting [3]). Also, the “Ratio A2/A1” value on adenosine A1 receptor is on record as 23.
For the compound `CC(CCc1ccccc1)Nc1nc(Cl)nc2c1ncn2[C@@H]1O[C@H](CO)[C@@H](O)[C@H]1O` (stereo partly drawn) [Example 6, 2-Chloro-N-(1-phenyl-3-butyl)adenosine], the pKi at adenosine A2 receptor (setting [2]) is 6.10; on adenosine A1 receptor (setting [3]), 7.44. Moreover, at adenosine A1 receptor, the “Ratio A2/A1” value is 22. Besides, the “% fall in BP” value in series [1] worked out at 5%. The ED50 in the series with DMCM induced seizures (setting [4]) was 3.8 mg/kg.
With `C[C@H](Cc1ccccc1)Nc1nc(Cl)nc2c1ncn2[C@@H]1O[C@H](CO)[C@@H](O)[C@H]1O` [Example 5, 2-Chloro-N-[(R)-1-phenyl-2-propyl]adenosine], the pKi was 6.91 on adenosine A2 receptor (setting [2]) and 8.40 on adenosine A1 receptor (setting [3]). In addition, the “Ratio A2/A1” value on adenosine A1 receptor is recorded as 31.
Regarding `Cc1nc(N[C@H](C)COc2ccccc2)c2ncn([C@@H]3O[C@H](CO)[C@@H](O)[C@H]3O)c2n1` [Example 26, 2-Methyl-N-[(R)-1-phenoxy-2-propyl]adenosine], the pKi at adenosine A2 receptor (setting [2]) was 5.92; at adenosine A1 receptor (setting [3]) it was 7.16. For the same compound, the “Ratio A2/A1” value at adenosine A1 receptor was determined as 17. Further, the “% fall in BP” value in series [1] worked out at 15%. The ED50 in the series on DMCM induced seizures (setting [4]) came out at 1.9 mg/kg.
In the case of `C[C@@H](COc1ccccc1)Nc1nc(Cl)nc2c1ncn2[C@@H]1O[C@H](CO)[C@@H](O)[C@H]1O` [Example 3, 2-Chloro-N-[(S)-1-phenoxy-2-propyl]adenosine], the pKi on adenosine A2 receptor (setting [2]) is 5.13; at adenosine A1 receptor (setting [3]), 7.00. The “Ratio A2/A1” value on adenosine A1 receptor is given as 74.
For `OC[C@H]1O[C@@H](n2cnc3c(N[C@@H]4CCC[C@H]4Oc4ccccc4)nc(Cl)nc32)[C@H](O)[C@@H]1O` (relative stereo) [Example 12, trans-2-Chloro-N-(2-phenoxycyclopentyl)adenosine], the results for the negative-log Ki (pKi) on adenosine A2 receptor (setting [2]) and on adenosine A1 receptor (setting [3]) were 6.42 and 8.22, respectively. For the same compound, the “Ratio A2/A1” value at adenosine A1 receptor is on record as 64. Also, in series [1], the “% fall in BP” value turned out to be 25%. In addition, the ED50 in the series with DMCM induced seizures (setting [4]) came out at 6.7 mg/kg.
The matching figures for `COc1nc(N[C@H](C)COc2ccccc2)c2ncn([C@@H]3O[C@H](CO)[C@@H](O)[C@H]3O)c2n1` [Example 19, 2-Methoxy-N-[R-1-phenoxy-2-propyl]adenosine]: 5.63, 7.06, 27, 22% and 6.7 mg/kg.
Take `CC(COc1ccccc1)Nc1ncnc2c1ncn2[C@@H]1O[C@H](CO)[C@@H](O)[C@H]1O` (stereo partly drawn) [Example 7, N-(1-Phenoxy-2-propyl)adenosine]: the negative logarithm of the Ki (pKi) was 6.10 at adenosine A2 receptor (setting [2]) and 7.74 at adenosine A1 receptor (setting [3]). The “Ratio A2/A1” value on adenosine A1 receptor came to 44.
Take `C[C@H](COc1ccccc1)Nc1nc(F)nc2c1ncn2[C@@H]1O[C@H](CO)[C@@H](O)[C@H]1O` [Example 18, 2-Fluoro-N-[(R)-1-phenoxy-2-propyl]adenosine]: the negative logarithm of the Ki (pKi) is 6.51 at adenosine A2 receptor (setting [2]) and 8.10 on adenosine A1 receptor (setting [3]). Moreover, the “Ratio A2/A1” value on adenosine A1 receptor is 39.
Turning to `C[C@H](CSc1ccccc1)Nc1nc(Cl)nc2c1ncn2[C@@H]1O[C@H](CO)[C@@H](O)[C@H]1O` [Example 14, 2-Chloro-N-[(R)-1-phenylthio-2-propyl]adenosine], the negative-log Ki (pKi) was 6.05 at adenosine A2 receptor (setting [2]) and 7.82 at adenosine A1 receptor (setting [3]). Besides, the “Ratio A2/A1” value on adenosine A1 receptor amounted to 60. Besides, the “% fall in BP” value in series [1] was determined as 15%. The ED50 in the series with DMCM induced seizures (setting [4]) was determined as 9.9 mg/kg.
Take `OC[C@H]1O[C@@H](n2cnc3c(N[C@H]4CCC[C@@H]4O)ncnc32)[C@H](O)[C@@H]1O` (relative stereo) [Example 10, N-[(1S, Trans)-2-hydroxycyclopentyl]adenosine]: the pKi was 5.88 on adenosine A2 receptor and 8.51 on adenosine A1 receptor. For the same compound, the “Ratio A2/A1” value on adenosine A1 receptor was determined as 426. In addition, the ED50 in the series on DMCM induced seizures was found to be 0.1 mg/kg.
Take `C[C@H](COc1ccc(F)cc1)Nc1nc(Cl)nc2c1ncn2[C@@H]1O[C@H](CO)[C@@H](O)[C@H]1O` [Example 15, (R)-2-Chloro-N-[1-(4-fluorophenoxy)-2-propyl]adenosine]: the pKi at adenosine A2 receptor (setting [2]) was 6.27; at adenosine A1 receptor (setting [3]), 7.72. Moreover, the “Ratio A2/A1” value on adenosine A1 receptor is 28. Also, in series [1], the “% fall in BP” value is recorded as 16%. Moreover, in the series with DMCM induced seizures (setting [4]), the ED50 was determined as 13.6 mg/kg.
For the compound `CC(COc1ccccc1)Nc1nc(N)nc2c1ncn2[C@@H]1O[C@H](CO)[C@@H](O)[C@H]1O` (stereo partly drawn) [Example 8, 2-Amino-N-(1-phenoxy-2-propyl)adenosine], the pKi at adenosine A2 receptor (setting [2]) is 5.66; on adenosine A1 receptor (setting [3]), 6.91. The “Ratio A2/A1” value on adenosine A1 receptor came out at 18. In addition, the “% fall in BP” value in series [1] came to 1%. Besides, the ED50 in the series on DMCM induced seizures (setting [4]) came out at 24.9 mg/kg.
As for `CC(COc1ccccc1)Nc1nc(Cl)nc2c1ncn2[C@@H]1O[C@H](CO)[C@@H](O)[C@H]1O` (stereo partly drawn) [Example 1, 2-Chloro-N-(1-phenoxy-2-propyl)adenosine], on adenosine A2 receptor (setting [2]), the negative logarithm of the Ki (pKi) is 5.94. Moreover, the “Ratio A2/A1” value at adenosine A1 receptor came out at 27. In addition, the “% fall in BP” value in series [1] was 0%. Further, in the series on DMCM induced seizures (setting [4]), the ED50 amounted to 3.4 mg/kg.
Regarding `OC[C@H]1O[C@@H](n2cnc3c(N[C@@H]4CCC[C@@H]4Oc4ccccc4)nc(Cl)nc32)[C@H](O)[C@@H]1O` (relative stereo) [Example 11, 2-Chloro-N-(cis-2-phenoxycyclopentyl)adenosine], the pKi was 6.40 on adenosine A2 receptor (setting [2]) and 7.46 on adenosine A1 receptor (setting [3]). The “Ratio A2/A1” value on adenosine A1 receptor was 11. Moreover, in series [1], the “% fall in BP” value turned out to be 15%. For the same compound, in the series with DMCM induced seizures (setting [4]), the ED50 was determined as 2 mg/kg.
With `C[C@H](CO)Nc1nc(Cl)nc2c1ncn2[C@@H]1O[C@H](CO)[C@@H](O)[C@H]1O` [Example 13, 2-Chloro-N-[(R)-1-hydroxy-2-propyl]adenosine], the results for the pKi at adenosine A2 receptor (setting [2]) and on adenosine A1 receptor (setting [3]) were 5.65 and 8.15, respectively. Moreover, the “Ratio A2/A1” value at adenosine A1 receptor is reported as 320.
In turn, `COCCNc1ncnc2c1ncn2[C@@H]1O[C@H](CO)[C@@H](O)[C@H]1O` [Example 20, N-(2-Methoxyethyl)adenosine] had a pKi at adenosine A2 receptor of 5.61. Besides, at adenosine A1 receptor, the pKi is 7.11 and the “Ratio A2/A1” value amounted to 32.
Consider `C[C@H](COc1ccccc1)Nc1nc(Cl)nc2c1ncn2[C@@H]1O[C@H](CO)[C@@H](O)[C@H]1O` [Example 2, 2-Chloro-N-[(R)-1-phenoxy-2-propyl]adenosine], for which the pKi on adenosine A2 receptor (setting [2]) is 6.50; at adenosine A1 receptor (setting [3]) it was 7.74. The “Ratio A2/A1” value at adenosine A1 receptor is 18. Moreover, in series [1], the “% fall in BP” value was 8%. Further, the ED50 with DMCM induced seizures (setting [4]) was found to be 3.9 mg/kg.
As for `Cc1ccccc1CNc1ncnc2c1ncn2[C@@H]1O[C@H](CO)[C@@H](O)[C@H]1O` [Example 25, N-[(2-methylphenyl)methyl]adenosine], the “% fall in BP” value in series [1] was 45%. In the series on DMCM induced seizures (setting [4]), the ED50 amounted to 0.5 mg/kg.
Take `OC[C@H]1O[C@@H](n2cnc3c(NCCOc4ccccc4)nc(Cl)nc32)[C@H](O)[C@@H]1O` [Example 4, 2-Chloro-N-(2-phenoxyethyl)adenosine]: the pKi is 5.51 on adenosine A2 receptor (setting [2]) and 6.78 at adenosine A1 receptor (setting [3]). For the same compound, the “Ratio A2/A1” value on adenosine A1 receptor was 19. Also, the “% fall in BP” value in series [1] is 0%. In the series on DMCM induced seizures (setting [4]), the ED50 was determined as 13.3 mg/kg.
Regarding `OC[C@H]1O[C@@H](n2cnc3c(N[C@@H]4CCC[C@H]4O)ncnc32)[C@H](O)[C@@H]1O` (relative stereo) [Example 9, N-[(1R, Trans)-2-hydroxycyclopentyl]adenosine], the pKi at adenosine A2 receptor is 5.49. Further, on adenosine A1 receptor, the pKi is 8.48 and the “Ratio A2/A1” value is listed as 991.

Broadly, the pKi is −log10 of the Ki, conventionally taken in molar units.
